This is an account of results in PubChem BioAssay AID1996.

≈ marks a conversion by molar mass, not a printed value.

The conditions of this data set: buffer; pH 7.4; 200.0 µM.
Take `COc1ccc(OC)c(NC(=O)c2cccnc2)c1`: the kinetic solubility (commonly the concentration staying in solution when a stock, usually in DMSO, is diluted into the medium) was greater than 38.7 µg/mL.

Take `Cc1ccc2nc(SC(C)C(=O)N3CCCCC3)[nH]c2c1` (configuration not stated): the kinetic solubility was greater than 45.5 µg/mL.

`CC(=O)Nc1cccc(Oc2ccc3c(c2)C(=O)NC3=O)c1` returned a kinetic solubility greater than 44.4 µg/mL.

Regarding `Cc1ccc(NC(=O)C(=O)NCc2ccncc2)cc1`, the solubility (kinetic) worked out at 29.6 µg/mL (≈ 110 µM).

Consider `Cc1ccc(NC(=O)C/C(N)=N/OC(=O)c2ccccc2)cc1`, for which the kinetic solubility was determined as 2.2 µg/mL (≈ 7.07 µM).

`COCC(=O)Nc1cc(Cl)ccc1C` gave a solubility (kinetic) greater than 32 µg/mL.

In the case of `COc1ccccc1NC(=O)CC(=O)Nc1ccccc1OC`, the solubility (kinetic) was greater than 47.2 µg/mL.

Compound `COc1ccc(OC)c(/C=N/OC(=O)Nc2ccc(Cl)cc2)c1` gave a solubility (kinetic) of 8.3 µg/mL (≈ 24.8 µM).

With `Cc1c(C(=O)Nc2ccccc2)c2ccc(C(F)(F)F)cc2n1O`, the solubility (kinetic) was 1 µg/mL (≈ 2.99 µM).

As to `CC(C)N(Cc1ccccc1)S(=O)(=O)c1ccc(F)cc1`, the solubility (kinetic) came to 12 µg/mL (≈ 39 µM). This solubility kinetic is about 12-fold higher than that of the compound before.

Compound `O=C(Nc1ncccn1)c1cccc(F)c1` returned a solubility (kinetic) greater than 32.6 µg/mL.

As for `O=c1sc2ccccc2c(N2CCCC2)c1[N+](=O)[O-]`, the kinetic solubility is greater than 41.4 µg/mL.

In turn, `Cc1noc(C(=O)Nc2cccc(Cl)c2)c1Cl` had a kinetic solubility of 2 µg/mL (≈ 7.38 µM).

As for `CC(C)(C)CC(=O)NCCCN1CCOCC1`, the kinetic solubility is greater than 36.4 µg/mL.

Consider `CC(Oc1ccccc1)C(=O)N1CCN=C1SCc1ccccc1F` (configuration not stated), for which the solubility (kinetic) is 11.4 µg/mL (≈ 31.8 µM).

Regarding `COc1ccccc1NC(=O)c1cc[n+]([O-])cc1`, the solubility (kinetic) was greater than 36.6 µg/mL.

Consider `Cc1ccc(S(=O)(=O)N2CCc3ccccc3C2CC(=O)O)cc1` (configuration not stated), for which the kinetic solubility was greater than 51.8 µg/mL.

Consider `COc1ccc(OC)c(S(=O)(=O)NCCc2csc(-c3cccnc3)n2)c1`, for which the kinetic solubility worked out at 59 µg/mL (≈ 145 µM).

In the case of `O=C(NC(Cc1ccccc1)C(=O)O)NC12CC3CC(CC(C3)C1)C2` (configuration not stated), the solubility (kinetic) is greater than 51.4 µg/mL.

Regarding `Cc1ccc(N2CCN(CC(O)COc3ccccc3)CC2)cc1` (configuration not stated), the solubility (kinetic) stood at 30.1 µg/mL (≈ 92.2 µM).

As to `CN(C)C(=S)NC(=O)C12CC3(C)CC(C)(CC(C)(C3)C1)C2`, the kinetic solubility was found to be 1 µg/mL (≈ 3.24 µM).

The compound `Cc1cccc(NC(=S)N2CCN(S(C)(=O)=O)CC2)c1` registered a kinetic solubility greater than 47 µg/mL.

The compound `OC(CN1CCC(c2c[nH]c3ccccc23)CC1)C(F)(F)F` (configuration not stated) registered a solubility (kinetic) greater than 46.9 µg/mL.

`O=C(Cc1ccsc1)Nc1cc(F)ccc1F`: the solubility (kinetic) is greater than 38 µg/mL.

Compound `O=C(CSc1nnc(Nc2ccccc2F)s1)NC1CCS(=O)(=O)C1` (configuration not stated) displayed a kinetic solubility greater than 60.4 µg/mL.

Consider `N#Cc1ccccc1OCC(=O)OCC(=O)NC1CCCCC1`, for which the kinetic solubility is greater than 47.5 µg/mL.

Regarding `Cc1ccc(NC(=O)C2CCCN2C(=O)NCc2ccccc2)cc1` (configuration not stated), the solubility (kinetic) stood at 5 µg/mL (≈ 14.8 µM).

`Cc1ccc2nc(-c3ccccn3)[nH]c2c1.Cl` registered a solubility (kinetic) greater than 36.9 µg/mL.

`Cc1ccc(C)c(S(=O)(=O)NCCCN2CCOCC2)c1` returned a kinetic solubility greater than 46.9 µg/mL.

Regarding `Cc1cccc(-c2nc(-c3ccncc3)no2)c1`, the solubility (kinetic) was found to be 3.4 µg/mL (≈ 14.3 µM).

For the compound `CN(C)C(=O)c1cnc(-c2ccccc2)nc1-c1ccccc1`, the solubility (kinetic) is greater than 45.5 µg/mL.

As to `COc1cc(-c2cc(C(=O)Nc3ccc(C)c(S(=O)(=O)N4CCOCC4)c3)c3ccccc3n2)cc(OC)c1OC`, the kinetic solubility was 6.7 µg/mL (≈ 11.6 µM).

`CSc1ccccc1C(=O)Nc1nc2ccccc2[nH]1` displayed a solubility (kinetic) of 3.1 µg/mL (≈ 10.9 µM). Against the preceding compound, the solubility kinetic is about 2.2-fold lower.

`O=C(NCCC1=CCCCC1)C1CCN(C(=O)Cc2ccccc2)CC1` came in with a kinetic solubility greater than 53.2 µg/mL.

In the case of `Cc1cn(CCOc2ccc(Cl)cc2)c(=O)[nH]c1=O`, the solubility (kinetic) turned out to be 36.8 µg/mL (≈ 131 µM).

On to `O=C1COc2ccc(S(=O)(=O)NCc3ccccc3)cc2N1`, for which the solubility (kinetic) came to 11.6 µg/mL (≈ 36.4 µM).

Consider `CCCn1cc(C(=O)OCC)c(=O)c2cc(F)c(F)cc21`, for which the solubility (kinetic) was 34.9 µg/mL (≈ 118 µM). This solubility kinetic lies about 3-fold higher than the previous one.

Regarding `COc1ccccc1CNC(=O)CN1C(=O)NC(c2ccccc2)(c2ccccc2)C1=O`, the solubility (kinetic) was 3.1 µg/mL (≈ 7.22 µM). Against the preceding compound, the solubility kinetic is about 11-fold lower.

Compound `O=C(COc1ccc(Cl)cc1)NCCNC(=O)c1ccccn1` registered a kinetic solubility of 47.6 µg/mL (≈ 143 µM).

For `CCOCCOc1cccc(C(=O)NC(c2ccccc2)c2ccccc2)c1`, the solubility (kinetic) was less than 0.8 µg/mL.

Take `COc1cc(C=O)ccc1OC(=O)N1CCOCC1`: the solubility (kinetic) was greater than 39.8 µg/mL.

`Cc1c(C(=O)OCC(=O)N(C)Cc2ccccc2)oc2ccccc12` yielded a kinetic solubility of 23.3 µg/mL (≈ 69.1 µM).

Turning to `COC(=O)c1cc(CSc2ncnc3sccc23)oc1C`, the kinetic solubility is 4.3 µg/mL (≈ 13.4 µM).

Compound `Cc1cccc(-c2nc3cc([N+](=O)[O-])ccc3o2)c1` gave a solubility (kinetic) of less than 0.3 µg/mL.

Turning to `Cc1coc2cc3oc(=O)c(CCC(=O)NCc4ccccn4)c(C)c3cc12`, the kinetic solubility was determined as 3.4 µg/mL (≈ 9.03 µM).

`CCOc1ccc(/C=C(\C(=O)O)c2ccc(S(=O)(=O)N3CCCCC3)s2)cc1OC` gave a solubility (kinetic) greater than 67.7 µg/mL.

For `O=C(CNC(=O)c1ccc(Br)o1)NC12CC3CC(CC(C3)C1)C2`, the kinetic solubility is 50.5 µg/mL (≈ 132 µM).

Regarding `S=C(Nc1ccccc1Cl)NC1CCCCCC1`, the kinetic solubility is 22 µg/mL (≈ 77.8 µM).

Take `O=C(NCC(=O)N1CCN(c2ccccc2)CC1)c1ccco1`: the solubility (kinetic) is greater than 47 µg/mL.

`C=CCN(Cc1cccc(OC)c1OC)C(=O)Oc1ccccc1` yielded a kinetic solubility of 9.6 µg/mL (≈ 29.3 µM).

In turn, `O=C(Nc1ccc(S(=O)(=O)Nc2ncccn2)cc1)c1ccccc1` yielded a kinetic solubility greater than 53.2 µg/mL.

Take `COc1ccccc1N1CCN(C(=S)Nc2ccccc2)CC1`: the solubility (kinetic) was 39.3 µg/mL (≈ 120 µM).
